Data from PubChem BioAssay AID1963435 (Molecular Pharmacology Branch, DTP, NCI, 2024).

System: PANC-1 complex spheroid growth, percent test/control
Test: Anticancer human tumor PANC-1 cell line growth inhibition [Asc];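 note: spheroids exposed to agents for 7 days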;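 for viability, T/C: percent viability relative to DMSO vehicle wells taken as 100%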
Conditions: for IC50: curve of first compound; for viability, T/C: stronger effect = lower value
Summary of the method: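 Complex spheroids combining tumor cells with HUVEC endothelial cells and human MSCs, at 37 degrees C, 5% CO2; agents tested alone or combined, half-log dilutions from at or near clinical Cmax, or 10 microM if Cmax unknown.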

[1] = second compound 0.00316 µM, first compound 0.00316 µM
[2] = second compound 0.00316 µM, first compound 0.01 µM
[3] = second compound 0.00316 µM, first compound 0.0316 µM
[4] = second compound 0.00316 µM, first compound 0.1 µM
[5] = second compound 0.00316 µM, first compound 0.316 µM
[6] = second compound 0.00316 µM, first compound 1 µM
[7] = second compound 0.01 µM, first compound 0.00316 µM
[8] = second compound 0.01 µM, first compound 0.01 µM
[9] = second compound 0.01 µM, first compound 0.0316 µM
[10] = second compound 0.01 µM, first compound 0.1 µM
[11] = second compound 0.01 µM, first compound 0.316 µM
[12] = second compound 0.01 µM, first compound 1 µM
[13] = second compound 0.0316 µM, first compound 0.00316 µM
[14] = second compound 0.0316 µM, first compound 0.01 µM
[15] = second compound 0.0316 µM, first compound 0.0316 µM
[16] = second compound 0.0316 µM, first compound 0.1 µM
[17] = second compound 0.0316 µM, first compound 0.316 µM
[18] = second compound 0.0316 µM, first compound 1 µM
[19] = second compound 0.1 µM, first compound 0.00316 µM
[20] = second compound 0.1 µM, first compound 0.01 µM
[21] = second compound 0.1 µM, first compound 0.0316 µM
[22] = second compound 0.1 µM, first compound 0.1 µM
[23] = second compound 0.1 µM, first compound 0.316 µM
[24] = second compound 0.1 µM, first compound 1 µM
[25] = second compound 0.316 µM, first compound 0.00316 µM
[26] = second compound 0.316 µM, first compound 0.01 µM
[27] = second compound 0.316 µM, first compound 0.0316 µM
[28] = second compound 0.316 µM, first compound 0.1 µM
[29] = second compound 0.316 µM, first compound 0.316 µM
[30] = second compound 0.316 µM, first compound 1 µM
[31] = second compound 1 µM, first compound 0.00316 µM
[32] = second compound 1 µM, first compound 0.01 µM
[33] = second compound 1 µM, first compound 0.0316 µM
[34] = second compound 1 µM, first compound 0.1 µM
[35] = second compound 1 µM, first compound 0.316 µM
[36] = second compound 1 µM, first compound 1 µM

CCN1CCN(Cc2ccc(Nc3ncc(F)c(-c4cc(F)c5nc(C)n(C(C)C)c5c4)n3)nc2)CC1 + CNC(C)C(=O)NC1CN(S(=O)(=O)c2cccc(S(=O)(=O)N3CCC4CCC(C(=O)NC(c5ccccc5)c5ccccc5)N4C(=O)C(NC(=O)C(C)NC)C3)c2)CCC2CCC(C(=O)NC(c3ccccc3)c3ccccc3)N2C1=O
IC50 (second compound 0.00316 µM): > 1000 nM
IC50 (second compound 0.01 µM): > 1000 nM
IC50 (second compound 0.0316 µM): > 1000 nM
IC50 (second compound 0.1 µM): > 1000 nM
IC50 (second compound 0.316 µM): > 1000 nM
IC50 (second compound 1 µM): > 1000 nM
viability, T/C [1]: 119%
viability, T/C [2]: 108%
viability, T/C [3]: 105%
viability, T/C [4]: 117%
viability, T/C [5]: 129%
viability, T/C [6]: 143%
viability, T/C [7]: 95.1%
viability, T/C [8]: 96.8%
viability, T/C [9]: 108%
viability, T/C [10]: 116%
viability, T/C [11]: 124%
viability, T/C [12]: 127%
viability, T/C [13]: 96%
viability, T/C [14]: 101%
viability, T/C [15]: 107%
viability, T/C [16]: 112%
viability, T/C [17]: 116%
viability, T/C [18]: 136%
viability, T/C [19]: 102%
viability, T/C [20]: 102%
viability, T/C [21]: 102%
viability, T/C [22]: 97.4%
viability, T/C [23]: 107%
viability, T/C [24]: 118%
viability, T/C [25]: 92.2%
viability, T/C [26]: 91.8%
viability, T/C [27]: 109%
viability, T/C [28]: 105%
viability, T/C [29]: 118%
viability, T/C [30]: 129%
viability, T/C [31]: 98.2%
viability, T/C [32]: 98.2%
viability, T/C [33]: 99.5%
viability, T/C [34]: 96.5%
viability, T/C [35]: 109%
viability, T/C [36]: 113%

Cn1ncnc1[C@H]1c2n[nH]c(=O)c3cc(F)cc(c23)N[C@@H]1c1ccc(F)cc1 + CNC(C)C(=O)NC1CN(S(=O)(=O)c2cccc(S(=O)(=O)N3CCC4CCC(C(=O)NC(c5ccccc5)c5ccccc5)N4C(=O)C(NC(=O)C(C)NC)C3)c2)CCC2CCC(C(=O)NC(c3ccccc3)c3ccccc3)N2C1=O
IC50 (second compound 0.00316 µM): > 100 nM
IC50 (second compound 0.01 µM): > 100 nM
IC50 (second compound 0.0316 µM): > 100 nM
IC50 (second compound 0.1 µM): > 100 nM
IC50 (second compound 0.316 µM): > 100 nM
IC50 (second compound 1 µM): > 100 nM
viability, T/C (second compound 0.00316 µM, first compound 0.000316 µM): 110%
viability, T/C (second compound 0.00316 µM, first compound 0.001 µM): 117%
viability, T/C [1]: 128%
viability, T/C [2]: 114%
viability, T/C [3]: 113%
viability, T/C [4]: 109%
viability, T/C (second compound 0.01 µM, first compound 0.000316 µM): 105%
viability, T/C (second compound 0.01 µM, first compound 0.001 µM): 108%
viability, T/C [7]: 99.6%
viability, T/C [8]: 117%
viability, T/C [9]: 110%
viability, T/C [10]: 111%
viability, T/C (second compound 0.0316 µM, first compound 0.000316 µM): 96.8%
viability, T/C (second compound 0.0316 µM, first compound 0.001 µM): 92.8%
viability, T/C [13]: 96.6%
viability, T/C [14]: 109%
viability, T/C [15]: 108%
viability, T/C [16]: 113%
viability, T/C (second compound 0.1 µM, first compound 0.000316 µM): 94.3%
viability, T/C (second compound 0.1 µM, first compound 0.001 µM): 102%
viability, T/C [19]: 97.3%
viability, T/C [20]: 101%
viability, T/C [21]: 109%
viability, T/C [22]: 115%
viability, T/C (second compound 0.316 µM, first compound 0.000316 µM): 109%
viability, T/C (second compound 0.316 µM, first compound 0.001 µM): 98.4%
viability, T/C [25]: 97.5%
viability, T/C [26]: 99.6%
viability, T/C [27]: 111%
viability, T/C [28]: 102%
viability, T/C (second compound 1 µM, first compound 0.000316 µM): 87.3%
viability, T/C (second compound 1 µM, first compound 0.001 µM): 107%
viability, T/C [31]: 111%
viability, T/C [32]: 99%
viability, T/C [33]: 95.5%
viability, T/C [34]: 102%

O=C(c1cc(Cc2n[nH]c(=O)c3ccccc23)ccc1F)N1CCN(C(=O)C2CC2)CC1 + CNC(C)C(=O)NC1CN(S(=O)(=O)c2cccc(S(=O)(=O)N3CCC4CCC(C(=O)NC(c5ccccc5)c5ccccc5)N4C(=O)C(NC(=O)C(C)NC)C3)c2)CCC2CCC(C(=O)NC(c3ccccc3)c3ccccc3)N2C1=O
IC50 (second compound 0.00316 µM): > 10000 nM
IC50 (second compound 0.01 µM): > 10000 nM
IC50 (second compound 0.0316 µM): > 10000 nM
IC50 (second compound 0.1 µM): > 10000 nM
IC50 (second compound 0.316 µM): > 10000 nM
IC50 (second compound 1 µM): > 10000 nM
viability, T/C [3]: 132%
viability, T/C [4]: 111%
viability, T/C [5]: 134%
viability, T/C [6]: 133%
viability, T/C (second compound 0.00316 µM, first compound 3.16 µM): 97.3%
viability, T/C (second compound 0.00316 µM, first compound 10 µM): 63.4%
viability, T/C [9]: 109%
viability, T/C [10]: 100%
viability, T/C [11]: 105%
viability, T/C [12]: 104%
viability, T/C (second compound 0.01 µM, first compound 3.16 µM): 103%
viability, T/C (second compound 0.01 µM, first compound 10 µM): 98.4%
viability, T/C [15]: 107%
viability, T/C [16]: 96.2%
viability, T/C [17]: 96.7%
viability, T/C [18]: 110%
viability, T/C (second compound 0.0316 µM, first compound 3.16 µM): 112%
viability, T/C (second compound 0.0316 µM, first compound 10 µM): 91.2%
viability, T/C [21]: 91.2%
viability, T/C [22]: 100%
viability, T/C [23]: 92.3%
viability, T/C [24]: 99.1%
viability, T/C (second compound 0.1 µM, first compound 3.16 µM): 101%
viability, T/C (second compound 0.1 µM, first compound 10 µM): 81.8%
viability, T/C [27]: 103%
viability, T/C [28]: 103%
viability, T/C [29]: 89.2%
viability, T/C [30]: 95.4%
viability, T/C (second compound 0.316 µM, first compound 3.16 µM): 99.2%
viability, T/C (second compound 0.316 µM, first compound 10 µM): 93.3%
viability, T/C [33]: 93.7%
viability, T/C [34]: 106%
viability, T/C [35]: 87.8%
viability, T/C [36]: 93.2%
viability, T/C (second compound 1 µM, first compound 3.16 µM): 89.9%
viability, T/C (second compound 1 µM, first compound 10 µM): 85.2%

O=C(c1ccc(F)c(F)c1Nc1ccc(I)cc1F)N1CC(O)([C@@H]2CCCCN2)C1 + CNC(C)C(=O)NC1CN(S(=O)(=O)c2cccc(S(=O)(=O)N3CCC4CCC(C(=O)NC(c5ccccc5)c5ccccc5)N4C(=O)C(NC(=O)C(C)NC)C3)c2)CCC2CCC(C(=O)NC(c3ccccc3)c3ccccc3)N2C1=O
IC50 (second compound 0.00316 µM): > 1000 nM
IC50 (second compound 0.01 µM): > 1000 nM
IC50 (second compound 0.0316 µM): > 1000 nM
IC50 (second compound 0.1 µM): > 1000 nM
IC50 (second compound 0.316 µM): > 1000 nM
IC50 (second compound 1 µM): > 1000 nM
viability, T/C [1]: 98.6%
viability, T/C [2]: 88.8%
viability, T/C [3]: 90.1%
viability, T/C [4]: 88%
viability, T/C [5]: 90.5%
viability, T/C [6]: 84.9%
viability, T/C [7]: 104%
viability, T/C [8]: 86.1%
viability, T/C [9]: 89.5%
viability, T/C [10]: 89%
viability, T/C [11]: 85.9%
viability, T/C [12]: 85.2%
viability, T/C [13]: 88.2%
viability, T/C [14]: 86.1%
viability, T/C [15]: 118%
viability, T/C [16]: 93.6%
viability, T/C [17]: 86.6%
viability, T/C [18]: 87.3%
viability, T/C [19]: 101%
viability, T/C [20]: 86.4%
viability, T/C [21]: 90.7%
viability, T/C [22]: 90.3%
viability, T/C [23]: 88.4%
viability, T/C [24]: 87.3%
viability, T/C [25]: 95.2%
viability, T/C [26]: 89.5%
viability, T/C [27]: 98.9%
viability, T/C [28]: 89.9%
viability, T/C [29]: 96.8%
viability, T/C [30]: 89.3%
viability, T/C [31]: 91.4%
viability, T/C [32]: 93%
viability, T/C [33]: 89.7%
viability, T/C [34]: 90%
viability, T/C [35]: 90.6%
viability, T/C [36]: 91.6%
